From patent publication US20130209441A1, “PROCESS FOR INHIBITION OF CEREBRAL DAMAGE ASSOCIATED WITH ISCHEMIA BY ANTHOCYANINS AND ANTHOCYANIDINS” (priority 2012, published 2013) come the findings set out here.

One experiment relates to pMCAO mice. Description: Mouse model of permanent middle cerebral artery occlusion (pMCAO): infarct volume (TTC staining) and 18-point neurological score at 24 h. It is filed as in vivo. Particulars: 24 h after pMCAO, vs vehicle. On the procedure: C3G is isolated from Prunus cerasus fruits as previously described is dissolved in 0.9% normal saline (NS) and is administered by oral gavage to mice at 1-h before induction of pMCAO. Mice are randomly distributed into […] and treated with vehicle (n=10), or 1 mg/kg (n=8), 2 mg/kg (n=10), and 5 mg/kg (n=9) of C3G. The doses chosen in the present study are based on previous reports. Animals are euthanized at 24 h following pMCAO and infarct volumes are determined.
To evaluate the effect of a delayed treatment at 3 h following pMCAO, mice are randomly assigned to vehicle (n=11), or 2 mg/kg of C3G administered orally at 3 h after pMCAO supplemented by two additional doses of 2 mg/kg of C3G 3 h apart. […] Animals are euthanized at 24 h following pMCAO and infarct volumes and neurological outcomes are determined.
Neurological assessment of experimental mice is performed according to an 18 point-based scale at 1 h before induction of pMCAO and at 24 h following surgery. Brains are immediately removed following neurological assessment, rinsed in cold saline solution, cut into 1-mm-thick coronal sections, and processed for 2% 2,3,5-triphenylterazolium chloride (TTC) staining as previously described. The infarct volumes from individual sections are then summed to determine the total brain infarct volume and adjusted for edema (corrected infarct volume).
All data are expressed as mean values±S.E.M. The degree of statistical significance between groups is determined on the basis of Student t-test, One-way ANOVA test, followed by post hoc Fisher LSD test, and Kruskal-Wallis rank test. SigmaStat 3.0 software (SYSTAT Software Inc., Point Richmond, Calif.) is used to carry out the analysis. Statistical significance is defined at p<0.05.

The next experiment deals with superoxide. Description: In situ detection of brain superoxide by dihydroethidium (DHE) fluorescence in pMCAO mice. Particulars: pretreatment 2 mg/kg orally; 24 h after pMCAO; vs vehicle, p<0.05. It is filed as in vivo, mouse. On the procedure: Measurement of superoxide is performed in situ by superoxide-selective oxidative fluorescent dye dihydroethidium cell membranes (DHE) as previously described in [3]. DHE is freely permeable across cell membranes and fluoresces red when oxidized to ethidium bromide by superoxide. Unfixed frozen brain sections (30 um) are placed on glass slides and submerged in 10^−6 mol/L DHE (Sigma) in phosphate buffered saline (PBS) buffer, pH 7.4 and incubated at 37° C. for 30 min in a dark humidified container. Fluorescence in ischemic regions of brain sections is then detected by a Zeiss 210 confocal microscope with a 590-nn long-pass filter. The intensity of the fluorescence is analyzed and quantified by densitometry (NIH Image software, version 1.37). The study included three groups (sham-operated, pMCAO with vehicle-treated, and pMCAO with 2 mg/kg of CG-treated mice; (n=4). Four brain sections of each mouse and five fields in each section are measured to calculate mean levels of the brain superoxide. Mitochondria are prepared from adult mouse brains (6-8 weeks old) by using the Percoll gradient method, as previously described. After decapitation, the brain is quickly removed and washed in the isolation buffer (300 mM sucrose, 0.1 mM EGTA, 10 mM HEPES, pH 7.4). The brain is homogenized in 15 ml of buffer by using hand-held glass Potter-Elvehjem homogenizer with PTFE pestle. […]

Experiment [1] deals with AIF release from isolated mitochondria. Briefly: AIF release from isolated mouse brain mitochondria. It is filed as biochemical. Particulars: compound 100 μM. On the procedure:
Mitochondria are prepared from mouse brains using flowing differential centrifugation procedures at 4° C. described previously. Homogenation buffer (50 μl) containing the prepared mitochondrial pellet is incubated with 25 μl of C3G at the desired concentration and the buffer added to achieve the final volume of 100 μl. The AIF release is then assessed in the presence of 100 μM of C3G in response to stimulation by GS-NO (50 μM) and H2O2 (50 μM).

The subject of experiment [2] is cyt c release from isolated mitochondria. Briefly: Cyt c release from isolated mouse brain mitochondria (immunoblot of supernatant). It is filed as biochemical. Particulars: for cyt c release in response to Ca2+: Ca2+ 100 μM stimulation. The procedure: Measurement of superoxide is performed in situ by superoxide-selective oxidative fluorescent dye dihydroethidium cell membranes (DHE) as previously described in [3]. DHE is freely permeable across cell membranes and fluoresces red when oxidized to ethidium bromide by superoxide. Unfixed frozen brain sections (30 um) are placed on glass slides and submerged in 10^−6 mol/L DHE (Sigma) in phosphate buffered saline (PBS) buffer, pH 7.4 and incubated at 37° C. for 30 min in a dark humidified container. Fluorescence in ischemic regions of brain sections is then detected by a Zeiss 210 confocal microscope with a 590-nn long-pass filter. The intensity of the fluorescence is analyzed and quantified by densitometry (NIH Image software, version 1.37). The study included three groups (sham-operated, pMCAO with vehicle-treated, and pMCAO with 2 mg/kg of CG-treated mice; (n=4). Four brain sections of each mouse and five fields in each section are measured to calculate mean levels of the brain superoxide. Mitochondria are prepared from adult mouse brains (6-8 weeks old) by using the Percoll gradient method, as previously described. After decapitation, the brain is quickly removed and washed in the isolation buffer (300 mM sucrose, 0.1 mM EGTA, 10 mM HEPES, pH 7.4). The brain is homogenized in 15 ml of buffer by using hand-held glass Potter-Elvehjem homogenizer with PTFE pestle. After 5 strokes, the cell debris and nuclei are centrifuged at 1330×g for 5 min. The supernatant is further centrifuged at 21,200×g for 10 min. Mitochondrial fraction is resuspended in 15% Percoll solution diluted in the isolation buffer and layered on top of a discontinuous Percoll gradient of 25/40%. The density gradient is centrifuged at 30,700×g for 10 min and mitochondria are collected from the interface between 25 and 40% Percoll solution, transferred to a new tube, and washed in 10 mL of isolation buffer by centrifugation at 6700×g for 10 min. The resulting pellet is suspended in the isolation buffer without EGTA and further diluted to 2 mg/mL in assay buffer for the cyt c release assay. 50 μL of mitochondria are then mixed with buffer or reagents in a final reaction volume of […].
The assay buffer contains 125 mM KCI, 2 mM KH2PO4, 4 mM MgCl2 at pH 7.4, and 3 mM ATP, 0.8 mM ADP, 5 mM succinate and 2 μM rotenone for respiration. Mitochondrial suspensions diluted in the assay buffer are exposed to Ca^2+ (100 μM), S-nitrosoglutathione (GS—NO, 50 μM for nitric oxide generation) or H2O2 (50 μM for oxidative stress) in 10 min and centrifuged sat 12,000×g in 5 min. The supernatant is collected and 15 μL of aliquots are run on a SDS-PAGE gel to detect the release of cyt c by the immunoblotting assay. […]
(In general: Immunoblotting shows a protein as a band on a membrane.)

Take `OC[C@H]1O[C@@H](Oc2cc3c(O)cc(O)cc3[o+]c2-c2ccc(O)c(O)c2)[C@H](O)[C@@H](O)[C@@H]1O` [C3G, cyanidin-3-O-glucoside]: the “reduction of infarct volume” value was 27% in the experiment on pMCAO mice (2 mg/kg oral gavage 1 h before pMCAO) and 30% in the experiment with pMCAO mice (5 mg/kg oral gavage 1 h before pMCAO). Moreover, the “reduction in infarct size” value with pMCAO mice (delayed treatment: 2 mg/kg orally at 3 h after pMCAO plus two additional 2 mg/kg doses 3 h apart) was 25%. The “neurological performance (18-point score)” value in the experiment with pMCAO mice (pretreatment 2 mg/kg orally) and in the experiment with pMCAO mice (pretreatment 5 mg/kg orally) was “statistically significant better neurological performance” each time. Moreover, the “neurological functional performance (18-point score)” value with pMCAO mice (treatment 2 mg/kg orally at 3 h after onset of ischemia plus two additional doses) is “significantly better”. In addition, in the experiment with superoxide, the “fluorescent density of brain superoxide in situ” value was “significantly suppressed”. In experiment [1] (GS-NO 50 μM stimulation), the “AIF release in response to GS-NO” value is “partially prevented”. Besides, the “AIF release in response to H2O2” value in experiment [1] (H2O2 50 μM stimulation) is on record as “partially prevented”. In addition, the “cyt c release in response to Ca2+” value in experiment [2] (compound 1 μM) was “no effect”; in experiment [2] (compound 100 μM), “did not prevent”. The “cyt c release in response to GS-NO” value in experiment [2] (GS-NO 50 μM oxidative stress, compound 100 μM) is recorded as “did not prevent”. In addition, in experiment [2] (H2O2 50 μM oxidative stress, compound 100 μM), the “cyt c release in response to H2O2” value is “did not prevent”.
